In brackets after ≈: the same amount, converted by molar mass. Activity calls are given as the source filed them.
Legend:
[1] = system: Staphylococcus aureus; experiment: Inhibition of FabB/FabF in methicillin-sensitive Staphylococcus aureus assessed as antibacterial activity after 16 hrs by agar dilution method
[2] = system: Staphylococcus aureus; experiment: Inhibition of FabB/FabF in Staphylococcus aureus ATCC 29213 assessed as antibacterial activity after 16 hrs by agar dilution method
[3] = system: Staphylococcus aureus; experiment: Inhibition of FabB/FabF in methicillin-resistant Staphylococcus aureus assessed as antibacterial activity after 16 hrs by agar dilution method
[4] = system: Staphylococcus aureus; experiment: Inhibition of FabB/FabF in methicillin-resistant Staphylococcus aureus assessed as antibacterial activity at 5 ug/disk after 18 hrs by agar disk diffusion method
[5] = system: Staphylococcus aureus; experiment: Antibacterial activity against methicillin-resistant Staphylococcus aureus infected in C57BL/6J mouse model of peritonitis assessed as mouse survival at 10 mg/kg, ip dosed at 1 hr and 5 hrs post infection and measured for 7 days relative to control; assay type: functional
[6] = system: Staphylococcus aureus; experiment: Antibacterial activity against methicillin-resistant Staphylococcus aureus infected in BALB/c mouse model of skin wound assessed as retainment of dermis layers at 2 mg administered topically as ointment twice daily for 7 days and measured and after 24 hrs by HE staining analysis; assay type: functional, organism-based
[7] = system: Staphylococcus aureus; experiment: Antibacterial activity against methicillin-resistant Staphylococcus aureus infected in BALB/c mouse model of skin infection assessed as bacterial load in skin lesions at 2 mg administered topically as ointment twice daily for 7 days and measured at 24 hrs post last dose (7.9 +/- 0.9 x 10^8 CFU/g); assay type: functional
[8] = system: Staphylococcus aureus; experiment: Antibacterial activity against methicillin-resistant Staphylococcus aureus infected in BALB/c mouse model of skin wound assessed as reduction in appearance of secondary scald at 2 mg administered topically as ointment twice daily for 7 days and measured after 24 hrs by visual inspection method; assay type: functional, organism-based
[9] = system: Staphylococcus aureus; experiment: Antibacterial activity against methicillin-resistant Staphylococcus aureus infected in BALB/c mouse model of skin wound assessed as retainment of fat layers at 2 mg administered topically as ointment twice daily for 7 days and measured after 24 hrs by HE staining analysis; assay type: functional, organism-based
[10] = system: Staphylococcus aureus; experiment: Antibacterial activity against methicillin-resistant Staphylococcus aureus infected in BALB/c mouse model of skin wound assessed as reduction in detachment of epidermis from dermis at 2 mg administered topically as ointment twice daily for 7 days and measured after 24 hrs by visual inspection method; assay type: functional, organism-based

| SMILES | antibacterial activity (disk diffusion, qualitative) [4] | other results |
| --- | --- | --- |
| C[C@]12C[C@@]34C=C(Sc5cccc(C#CC6(O)CCCCC6)c5)C(=O)[C@@](C)(CCC(=O)Nc5c(O)ccc(C(=O)O)c5O)[C@@H]3[C@H](C[C@@H]1C4)O2 | Active | MIC [1]: 0.25 µg/mL (≈ 0.372 µM); MIC [2]: 0.25 µg/mL (≈ 0.372 µM); MIC [3]: 0.25 µg/mL (≈ 0.372 µM) |
| CCN(CC)CC#Cc1cccc(SC2=C[C@]34C[C@H]5C[C@H](O[C@@]5(C)C3)[C@H]4[C@](C)(CCC(=O)Nc3c(O)ccc(C(=O)O)c3O)C2=O)c1 | Active |  |
| C[C@]12C[C@@]34C=C(Sc5ccccn5)C(=O)[C@@](C)(CCC(=O)Nc5c(O)ccc(C(=O)O)c5O)[C@@H]3[C@H](C[C@@H]1C4)O2 | Active | MIC [1]: 2 µg/mL (≈ 3.63 µM); MIC [2]: 2 µg/mL (≈ 3.63 µM); Survival [5]: inactive; MIC [3]: 2 µg/mL (≈ 3.63 µM) |
| C[C@]12C[C@@]34C=C(Sc5cccc(-c6ccc(C=O)cc6)c5)C(=O)[C@@](C)(CCC(=O)Nc5c(O)ccc(C(=O)O)c5O)[C@@H]3[C@H](C[C@@H]1C4)O2 | Active |  |
| C/C(=C\C(=O)OCCCCCCCCC(=O)O)C[C@@H]1OC[C@H](C[C@@H]2O[C@H]2[C@@H](C)[C@H](C)O)[C@@H](O)[C@H]1O [MUPIROCIN] |  | Activity [6]: Active; Activity [7]: 6.5 ×10⁶ CFU/g; Activity [8]: Active; Activity [9]: Active; Activity [10]: Active |
| CN(C)C(=O)/C=C/c1cccc(SC2=C[C@]34C[C@H]5C[C@H](O[C@@]5(C)C3)[C@H]4[C@](C)(CCC(=O)Nc3c(O)ccc(C(=O)O)c3O)C2=O)c1 | Active |  |
| C[C@]12C[C@@]34C=C(SCc5ccco5)C(=O)[C@@](C)(CCC(=O)Nc5c(O)ccc(C(=O)O)c5O)[C@@H]3[C@H](C[C@@H]1C4)O2 | Active |  |
| CNC(=O)/C=C/c1cccc(SC2=C[C@]34C[C@H]5C[C@H](O[C@@]5(C)C3)[C@H]4[C@](C)(CCC(=O)Nc3c(O)ccc(C(=O)O)c3O)C2=O)c1 | Active |  |
| CNC(=O)/C=C/c1ccc(SC2=C[C@]34C[C@H]5C[C@H](O[C@@]5(C)C3)[C@H]4[C@](C)(CCC(=O)Nc3c(O)ccc(C(=O)O)c3O)C2=O)cc1 | Active |  |
| C[C@]12C[C@@]34C=C(Sc5cccc(I)c5)C(=O)[C@@](C)(CCC(=O)Nc5c(O)ccc(C(=O)O)c5O)[C@@H]3[C@H](C[C@@H]1C4)O2 | Active | MIC [1]: 0.5 µg/mL (≈ 0.74 µM); MIC [2]: 1 µg/mL (≈ 1.48 µM); MIC [3]: 0.5 µg/mL (≈ 0.74 µM) |
| C[C@]12C[C@@]34C=C(Sc5cccc6ccccc56)C(=O)[C@@](C)(CCC(=O)Nc5c(O)ccc(C(=O)O)c5O)[C@@H]3[C@H](C[C@@H]1C4)O2 | Active |  |
| CC(C)(C)OC(=O)/C=C/c1cccc(SC2=C[C@]34C[C@H]5C[C@H](O[C@@]5(C)C3)[C@H]4[C@](C)(CCC(=O)Nc3c(O)ccc(C(=O)O)c3O)C2=O)c1 | Active |  |
| C[C@]12C[C@@]34C=C(Sc5cccc(C#CC6CC6)c5)C(=O)[C@@](C)(CCC(=O)Nc5c(O)ccc(C(=O)O)c5O)[C@@H]3[C@H](C[C@@H]1C4)O2 | Active |  |
| C[C@]12C[C@@]34C=C(Sc5cccs5)C(=O)[C@@](C)(CCC(=O)Nc5c(O)ccc(C(=O)O)c5O)[C@@H]3[C@H](C[C@@H]1C4)O2 | Active |  |
| C[C@]12C[C@@]34C=C(Sc5ccc(-c6ccc(C=O)cc6)cc5)C(=O)[C@@](C)(CCC(=O)Nc5c(O)ccc(C(=O)O)c5O)[C@@H]3[C@H](C[C@@H]1C4)O2 | Active |  |
| C[C@]12C[C@@]34C=C(Sc5cccc(C#Cc6ccc(F)cc6)c5)C(=O)[C@@](C)(CCC(=O)Nc5c(O)ccc(C(=O)O)c5O)[C@@H]3[C@H](C[C@@H]1C4)O2 | Active |  |
| CC(C)(C)C#Cc1cccc(SC2=C[C@]34C[C@H]5C[C@H](O[C@@]5(C)C3)[C@H]4[C@](C)(CCC(=O)Nc3c(O)ccc(C(=O)O)c3O)C2=O)c1 | Active |  |
| C[C@]12C[C@@]34C=C(Sc5cccc(-c6ccccc6F)c5)C(=O)[C@@](C)(CCC(=O)Nc5c(O)ccc(C(=O)O)c5O)[C@@H]3[C@H](C[C@@H]1C4)O2 | Active |  |
| C[C@]12C[C@@]34C=C(Sc5cccc(C#Cc6cccc(N)c6)c5)C(=O)[C@@](C)(CCC(=O)Nc5c(O)ccc(C(=O)O)c5O)[C@@H]3[C@H](C[C@@H]1C4)O2 | Active |  |

Source: ChEMBL document CHEMBL4359841, “Late-Stage Functionalization of Platensimycin Leading to Multiple Analogues with Improved Antibacterial Activity in Vitro and in Vivo” (2019)
